Source: PubChem BioAssay AID1645871

details: pampa; pH 5.0; 30.0 min; 50.0 µM

| SMILES | Papp [×10⁻⁶ cm/s] |
| --- | --- |
| COc1ccc(C2c3c(oc4ccc(Cl)cc4c3=O)C(=O)N2CCCN(C)C)cc1OC (stereo not given) | 7.76 |
| CCc1cccc(NC(=O)c2cc(-c3ccc[nH]3)n[nH]2)c1 | 90.2 |
| O=C(Nc1ccc2c(N3CCOCC3)ncnc2c1)c1cccc(Br)c1 | 654 |
| Cc1ccnc(NC(=O)C2CC(=O)N(c3n[nH]c4cc(Br)ccc34)C2)c1 (stereo not given) | 62.8 |
| CCCCCn1c(CCCNC(=O)c2ccccc2OC)nc2ccccc21 | 491 |
| CNc1nc(-c2ccc3c(N)n[nH]c3c2)cc(N2C[C@@H](C(=O)NC3CCCCC3)CC[C@H]2C)n1 | 26.1 |
| O=C(NC[C@H]1Cn2c(-c3ccc(Cl)cc3)cnc2CO1)C1CCCC1 | 19.4 |
| CC(C)(N)C(=O)N[C@H](COCc1ccccc1)C(=O)N1CCC2(CC1)CN(S(C)(=O)=O)c1ccccc12 | 27.5 |
| CC(C)c1ccccc1-c1nc(NCc2ccc(-c3cccnc3)cc2)c2ccccc2n1 | > 1000 |
| Cc1nn2c(c1-c1ccccc1-c1ccccc1)N(CCC(C)C)CCC2 | 350 |
| CN(Cc1ccc(/C=C/C(=O)NO)cc1)CC12CC3CC(CC(C3)C1)C2 | 108 |
| CC(C)Oc1cccc(C2CC(=O)Nc3cc4c(cc32)OCO4)c1 (stereo not given) | 785 |
| O=C(NCCCNc1nc(Nc2cccc(NC(=O)N3CCCC3)c2)ncc1I)c1cccs1 | 234 |
| O=C(NCCCO)c1ccc(-c2ncc3cnc(-c4cccc(F)c4)cn23)cc1 | 21.2 |
| CCC(Sc1nc2ccccc2c2nc(CCc3c(C)n[nH]c3C)nn12)C(=O)Nc1ccc(F)cc1 (stereo not given) | 205 |
| Oc1ccc(-c2nc(C3CC3)nc3c2CCN(CC2CCCCC2)CC3)cc1 | 190 |
| Cc1nc2nc(NC(=O)c3ccc(C(C)(C)C)cc3)[nH]n2c(=O)c1Cl | 83.9 |
| Cn1c(=O)c2c(-c3ccc(Cl)cc3)n(CCc3ccccc3)cc2n(C)c1=O | 762 |
| CCNC(=O)c1coc(COc2ccc3c(c2)C(c2ccc(F)cc2)N(C(=O)CC(C)C)CC3)n1 (stereo not given) | > 1000 |
| CCc1cccc(NC(=O)CSc2nc3ccccc3nc2N2CCCCC2)c1 | 351 |
| CC(C)c1nc(CN(C)C(=O)N[C@H](C(=O)N[C@@H](Cc2ccccc2)C[C@H](O)[C@H](Cc2ccccc2)NC(=O)OCc2cncs2)C(C)C)cs1 | 844 |
| COc1ccc2[nH]c(C[C@@H]3C[C@@H](C(C)C)[C@H](CNCc4ccccc4O)C=C3C)nc2n1 | 739 |

| SMILES | Papp [×10⁻⁶ cm/s] |
| --- | --- |
| O=C(c1ccc2ncccc2c1)N1CCc2c(nc3cc[nH]n3c2=O)C1 | 5.6 |
| CNc1nc2c(s1)C(c1ccc(Cl)cc1)CC(=O)N2 (stereo not given) | 204 |
| CC1CCN(S(=O)(=O)c2ccc3c(ccc(=O)n3CC(=O)NCc3ccc(Cl)cc3)c2)CC1 | 828 |
| COc1ccc(-c2ccc3ncc4c(c3c2)n(-c2ccc(N3CCNCC3)c(C(F)(F)F)c2)c(=O)n4C)cn1 | 153 |
| CCOC(=O)N1CCN(C(=O)Cn2sc3nc(C)cc(C)c3c2=O)CC1 | 19.1 |
| COc1ccc(-c2ccc3ncc(Nc4ccncc4)n3n2)cc1OC | 26.2 |
| Cn1cnc(-c2nccc3c(=O)[nH]c(OCCCC(F)(F)F)nc23)c1 | 78.7 |
| CCN(CC)C(=O)N1c2ccccc2C=Cc2ccccc21 | > 1000 |
| COc1ccc(CNC(=O)CCCn2nc(C)c3c(C)n(-c4ccc(C)cc4)nc3c2=O)cc1OC | 159 |
| CCOc1cc(CNc2ccc(O)cc2)ccc1OCc1ccc(Cl)cc1 | 187 |
| CCOC(=O)Nc1ccc(NCc2ccc(F)cc2)nc1N | 142 |
| CCc1ccc2ncc(C(=O)c3ccc(C)c(C)c3)c(N3CCC(C(N)=O)CC3)c2c1 | 653 |
| COc1cccc(-n2nc(C(=O)O)cc2-c2ccc(C3CCCCC3)c(Cl)c2)c1 | 401 |
| CCN1CCN(c2ncc3c(n2)CCN(Cc2cc(Br)cs2)C3)CC1 | 77.1 |
| CN(C)[C@@H]1CCN(c2cccc(Nc3nn4c(=O)c5ccccc5nc4s3)c2)C1 | 24.9 |
| COc1ccc(CN2CCNc3cc(Nc4ccccc4)ncc3C2)cc1O | 3.07 |
| O=C(NCC1CCOCC1)C1CC(=O)N(c2n[nH]c3cc(Br)ccc23)C1 (stereo not given) | 10.6 |
| Fc1ccc(CN2CCNc3cc(Nc4ccccc4)ncc3C2)cc1F | 340 |
| Cc1ccc2oc3c(c(=O)c2c1)C(c1cccc(O)c1)N(CCCN1CCOCC1)C3=O (stereo not given) | 2.62 |
| COc1ccc(C)cc1NC(=O)c1cnc(-c2ccc(F)cc2)nc1-c1ccncc1 | 926 |
| Cc1c(-c2cccc(NC(=O)c3ccc(F)c(F)c3)c2)nc2ncccn12 | 710 |
| CN(C)CC[C@@H](c1ccc(Cl)cc1)c1ccccn1 | 82.5 |

| SMILES | Papp [×10⁻⁶ cm/s] |
| --- | --- |
| COCCNc1ncc(-c2cccc(O)c2)c2c1OCC2 | 77 |
| N#Cc1ccc(-c2ccc(CNc3ccc(C4CCNCC4)cc3)o2)cc1 | 236 |
| O=C(NC1CCCc2c1[nH]c1ccccc21)c1ccccc1 (stereo not given) | 680 |
| Cc1ccc(C(=O)N2CCc3c(nc4cc(-c5ccccc5)[nH]n4c3=O)C2)cn1 | 1.2 |
| COC[C@@H]1CN(C(=O)c2n[nH]c3ccccc23)C[C@H]1c1nc(C)no1 | 37.8 |
| Cc1c(Cl)cccc1NC(=O)CNS(=O)(=O)c1cccs1 | 458 |
| CC(C)n1cc(-c2ccc3c(c2)N(C)CC3)c2c(NS(=O)(=O)c3ccn(C)n3)ccnc21 | > 1000 |
| CCCc1oc2ccc(NS(=O)(=O)c3ccc(OC)cc3)cc2c1C(=O)OCC | 1.84 |
| O=C(O)c1ccc(-c2c[nH]c3ncc(-c4ccccc4)cc23)cc1C1CCCC1 | 400 |
| COc1ccc(CN2CCc3c(c(=O)n4ncc(C(=O)N5CCN(c6ccccc6OC)CC5)c4n3C)C2)cc1 | 324 |
| COc1ccc(-n2c(C)c(C(C)=O)c3cc(OC(=O)COc4ccccc4)ccc32)cc1 | > 1000 |
| O=C(Nc1ccc(OC(F)(F)Cl)cc1)c1cnc(N2CC[C@@H](O)C2)c(-c2ccn[nH]2)c1 | 16.8 |
| CC(C)c1ccc(CC(=O)N2CCCc3ncc(C(=O)Nc4cccnc4)cc32)cc1 | 932 |
| O=C(O)c1ccc(N2C(=O)/C(=C/c3ccc(-c4ccc([N+](=O)[O-])cc4)o3)C=C2c2ccccc2)cc1 | 37.5 |
| COc1ccc(-n2nc(C3CCN([S+](=O)([O-])c4c(C)noc4C)CC3)[nH]c2=O)cc1 | 308 |
| COc1ccccc1CNS(=O)(=O)c1ccc(-c2cnc(C3CC3)o2)cc1 | > 1000 |
| Cc1ccc(C(=O)N2CCc3sc(C(=O)NC(C)c4ccccc4)cc3C2)cc1 (stereo not given) | 425 |
| COc1ccc2[nH]c3c(c2c1)CCNC31CCN(S(=O)(=O)c2c(C)noc2C)CC1 | 161 |
| CCC(CC)C(=O)NC[C@@H]1C=C(C)[C@H](Cc2nc3c(C)cccc3[nH]2)C[C@H]1C(C)C | > 1000 |
| CS(=O)(=O)c1ccc(-c2cnc(NCc3ccco3)n3cnnc23)cc1 | 13.6 |
| CN1CCN(C(=O)Cc2c[nH]c3ncc(-c4ccccc4Oc4ccccc4)cc23)CC1 | 578 |
| Cc1nc(-c2ccco2)cc([C@H]2CN3CC[C@H]2C[C@@H]3CNC(=O)NC2CCCCC2)n1 | 4.96 |

The remaining lines, values ahead:

| Papp [×10⁻⁶ cm/s] | SMILES |
| --- | --- |
| 576 | COCC(C)NCc1cc2ccc(OC)cc2nc1N1CCN(c2ccc(F)cc2)CC1 (stereo not given) |
| 2.72 | Nc1c(-c2ccncc2)cc[nH]c1=O |
| 446 | C=CCc1ccc(O)c(-c2ccc(O)c(CC=C)c2)c1 |
| 870 | Cc1cc(CNC(=O)c2ccc3c(c2)n(CC2CC2)c(=O)n3C2CCCCC2)on1 |
| 617 | Cc1ccc(Cl)cc1NS(=O)(=O)c1cc2c(cc1F)NC(=O)CC2 |
| 853 | CCn1ncc(NC(=O)Cn2ncc3cc(-c4cccc(OC)c4)ccc32)n1 |
| > 1000 | Cc1c(C)n(Cc2ccccc2)c2ccc(C(=O)OCCN(C)C)cc12 |
| 109 | COc1ccc(-n2nc(C3CCCN(C(=O)C4CC4)C3)[nH]c2=O)cc1 (stereo not given) |
| 255 | COc1ccc(C(=O)N2CCCC(c3nn(-c4ccc(OC)cc4)c(=O)[nH]3)C2)cc1 (stereo not given) |
| 1.07 | NCC(=O)Nc1cncc(-c2nn3c(=O)cc(N4CCNCC4)nc3s2)c1 |
| > 1000 | COc1ccc(NC(=O)c2ccc[nH]2)cc1S(=O)(=O)Nc1ccc(Br)cc1 |
| 531 | CN(C)CC/C=C1\c2ccccc2Sc2ccc(Cl)cc21 |
| > 1000 | CCN(CC)C(=O)c1coc(COc2ccc3c(c2)C(c2cccc(F)c2)N(C(=O)C(C)C)CC3)n1 (stereo not given) |
| 640 | CCC1=Nc2cc(C(=O)NC3CCCC3)ccc2Sc2ccc(Cl)cc21 |
| 3.9 | Cc1ccc2oc3c(c(=O)c2c1)C(c1ccc(O)cc1)N(CCCN(C)C)C3=O (stereo not given) |
| 5.74 | Fc1cccc(CN2CCNc3cc(Nc4ccccc4)ncc3C2)c1 |
| 679 | N#Cc1ccc(C(=O)Nc2ccc(Cl)c(-c3nc4cc(Cl)ccc4o3)c2)c(F)c1 |
| > 1000 | Cc1ccc(S(=O)(=O)N2CCN(C(=O)c3cc4c(s3)CCC4)CC2)cc1 |
| 521 | O=C(c1ccccc1)N1CCC(c2nn(-c3ccc(F)cc3)c(=O)[nH]2)CC1 |
| 483 | COc1ccc(C(=O)NC2CCCc3c2[nH]c2c(Cl)cccc32)cc1OC (stereo not given) |

| Papp [×10⁻⁶ cm/s] | SMILES |
| --- | --- |
| 730 | CN1CCN(CCCN2c3ccccc3Sc3ccc(S(=O)(=O)N(C)C)cc32)CC1 |
| > 1000 | Nc1c(S(=O)(=O)c2cccs2)c2nc3ccccc3nc2n1Cc1ccccc1 |
| 9.03 | Cc1noc(C)c1Cc1ccc(C(=O)N2CCc3c(nc4cc(-c5ccccc5)[nH]n4c3=O)C2)o1 |
| 413 | COC(=O)c1ccc(NS(=O)(=O)c2c(C)nc3sccn3c2=O)cc1 |
| > 1000 | Cc1cc(C)nc(NS(=O)(=O)c2ccc(NC(=S)NC(=O)COc3ccc(Br)cc3Cl)cc2)n1 |
| 559 | Cc1ccc(-n2ncc3c(NCCCn4ccnc4)ncnc32)cc1Cl |
| 884 | CC(C)(C)c1ccc(C(=O)Nc2ccc3c(c2)CCCN3C(=O)c2cccs2)cc1 |
| 35 | Cc1ccccc1C(=O)NC1CCN(c2ccc3nnc(C4CC4)n3n2)CC1 |
| 151 | COc1cc(NC(=O)c2nc3ccccc3n(C)c2=O)cc(OC)c1OC |
| 42.2 | CC(C)(C)CN1CCNc2cc(Nc3ccccc3)ncc2C1 |
| 1.92 | COc1ccccc1-c1[nH]nc2ncc(-c3ccc(C)cc3)nc12 |
| 421 | Oc1ccc(-c2nc(C3CC3)nc3c2CCN(Cc2ccc(F)cc2)CC3)cc1 |
| 65.3 | COC[C@@H]1CN(C(=O)c2nn(C)c3ccccc23)C[C@H]1c1nc(C)no1 |
| 758 | COc1ccc(-c2ccc3ncc(Nc4cccnc4OC)n3n2)cn1 |
| 187 | COc1cccc(CN2CCNc3cc(Nc4ccccc4)ncc3C2)c1 |
| 16.2 | CCOC(=O)c1ccc(NC(=O)N2Cc3[nH]cnc3C[C@H]2c2nc(C(C)C)no2)cc1 |
| 963 | COc1ccc(N(C)C(=O)c2cc3c(s2)-c2ccccc2OC3)cc1 |
| > 1000 | CN1CCCC(CC2c3ccccc3Sc3ccccc32)C1 (stereo not given) |
| 455 | COC(=O)Nc1nc2ccc(C(=O)c3ccccc3)cc2[nH]1 |
